Target: T1, human TPH1 (Homo sapiens, UniProt P17752)
T1 sequence (P17752 1-444): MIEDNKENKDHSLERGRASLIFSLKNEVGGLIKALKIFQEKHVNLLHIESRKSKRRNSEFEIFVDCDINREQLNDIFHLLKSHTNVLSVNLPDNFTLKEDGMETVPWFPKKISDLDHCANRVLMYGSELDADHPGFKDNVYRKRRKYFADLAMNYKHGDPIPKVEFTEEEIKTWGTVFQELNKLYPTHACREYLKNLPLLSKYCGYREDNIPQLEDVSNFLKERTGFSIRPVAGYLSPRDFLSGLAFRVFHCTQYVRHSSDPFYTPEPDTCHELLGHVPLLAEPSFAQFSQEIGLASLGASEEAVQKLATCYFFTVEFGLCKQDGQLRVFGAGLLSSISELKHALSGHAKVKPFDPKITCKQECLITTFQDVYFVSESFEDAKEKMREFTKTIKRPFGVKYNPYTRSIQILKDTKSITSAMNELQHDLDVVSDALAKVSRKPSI
Assay: biochemical
Outline: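 Inhibition is derived from 5-hydroxy-L-tryptophan fluorescence (540 nm emission, 300 nm excitation) after perchloric acid stop, relative to DMSO vehicle. Recombinant full-length human enzyme (40-80 nM) reacts with 40 μM tryptophan plus 100 μM methyltetrahydropterin, pH 7.6 Tris/DTT/catalase, 15° C, 60 min.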

SMILES | IC50
COc1cc(F)c(C2c3c(nc4cc(C(F)(F)F)ccn34)CCN2C(=O)COc2ccc3ccccc3c2)cc1OC (stereo not drawn) [Example 3.18.1, 1-(1-(2-fluoro-4,5-dimethoxyphenyl)-7-(trifluoromethyl)-3,4-dihydroimidazo[1,2-a:5,4-c′]dipyridin-2(1H)-yl)-2-(naphthalen-2-yloxy)ethan-1-one] | 5 nM
COc1cc(F)c(C2c3c(nc4cc(C(F)(F)F)ccn34)CCN2C(=O)COc2ccc(CN3CCOCC3)cc2Cl)cc1OC (stereo not drawn) [Example 3.18.2, 2-(2-chloro-4-(morpholinomethyl)phenoxy)-1-(1-(2-fluoro-4,5-dimethoxyphenyl)-7-(trifluoromethyl)-3,4-dihydroimidazo[1,2-a:5,4-c′]dipyridin-2(1H)-yl)ethan-1-one] | 5 nM
COc1cc(F)c(C2c3c(nc4cc(C(F)(F)F)ccn34)CCN2C(=O)COc2ccc3c(c2)CN(C(=O)OC(C)(C)C)CC3)cc1OC (stereo not drawn) [Example 3.18.3, tert-butyl 7-(2-(1-(2-fluoro-4,5-dimethoxyphenyl)-7-(trifluoromethyl)-3,4-dihydroimidazo[1,2-a:5,4-c′]dipyridin-2(1H)-yl)-2-oxoethoxy)-3,4-dihydroisoquinoline-2(1H)-carboxylate] | 9 nM
COc1cc(F)c(C2c3c(nc4cc(C(F)(F)F)ccn34)CCN2C(=O)COc2ccc3c(c2)CNCC3)cc1OC (stereo not drawn) [Example 3.18.4, 1-(1-(2-fluoro-4,5-dimethoxyphenyl)-7-(trifluoromethyl)-3,4-dihydroimidazo[1,2-a:5,4-c′]dipyridin-2(1H)-yl)-2-((1,2,3,4-tetrahydroisoquinolin-7-yl)oxy)ethan-1-one] | 72 nM
COc1cc(F)c(C2c3c(nc4cc(C(F)(F)F)ccn34)CCN2C(=O)COc2ccc3c(c2)CN(C)CC3)cc1OC (stereo not drawn) [Example 3.18.5, 1-(1-(2-fluoro-4,5-dimethoxyphenyl)-7-(trifluoromethyl)-3,4-dihydroimidazo[1,2-a:5,4-c′]dipyridin-2(1H)-yl)-2-((2-methyl-1,2,3,4-tetrahydroisoquinolin-7-yl)oxy)ethan-1-one] | 13 nM
COc1cc(F)c(C2c3c(nc4cc(C(F)(F)F)ccn34)CCN2C(=O)COc2ccc3c(c2)CN(C(C)=O)CC3)cc1OC (stereo not drawn) [Example 3.18.6, 2-((2-acetyl-1,2,3,4-tetrahydroisoquinolin-7-yl)oxy)-1-(1-(2-fluoro-4,5-dimethoxyphenyl)-7-(trifluoromethyl)-3,4-dihydroimidazo[1,2-a:5,4-c′]dipyridin-2(1H)-yl)ethan-1-one] | 6 nM
COc1cc(F)c(C2c3c(nc4cc(C(F)(F)F)ccn34)CCN2C(=O)COc2ccc3c(c2)CN(C(=O)CO)CC3)cc1OC (stereo not drawn) [Example 3.18.7, 1-(1-(2-fluoro-4,5-dimethoxyphenyl)-7-(trifluoromethyl)-3,4-dihydroimidazo[1,2-a:5,4-c′]dipyridin-2(1H)-yl)-2-((2-(2-hydroxyacetyl)-1,2,3,4-tetrahydroisoquinolin-7-yl)oxy)ethan-1-one] | 4 nM
COc1cc(F)c(C2c3c(nc4cc(C(F)(F)F)ccn34)CCN2C(=O)COc2ccc(C3(N[S+]([O-])C(C)(C)C)COC3)cc2Cl)cc1OC (stereo not drawn) [Example 3.18.8, N-(3-(3-chloro-4-(2-(1-(2-fluoro-4,5-dimethoxyphenyl)-7-(trifluoromethyl)-3,4-dihydroimidazo[1,2-a:5,4-c′]dipyridin-2(1H)-yl)-2-oxoethoxy)phenyl)oxetan-3-yl)-2-methylpropane-2-sulfinamide] | 48 nM
COc1cc(F)c(C2c3c(nc4cc(C(F)(F)F)ccn34)CCN2C(=O)COc2ccc(C3(N)COC3)cc2Cl)cc1OC (stereo not drawn) [Example 3.18.9, 2-(4-(3-aminooxetan-3-yl)-2-chlorophenoxy)-1-(1-(2-fluoro-4,5-dimethoxyphenyl)-7-(trifluoromethyl)-3,4-dihydroimidazo[1,2-a:5,4-c′]dipyridin-2(1H)-yl)ethan-1-one] | 10 nM
COc1cc(F)c(C2c3c(nc4cc(C(F)(F)F)ccn34)CCN2C(=O)COc2ccc(C3(N4CCOCC4)COC3)cc2Cl)cc1OC (stereo not drawn) [Example 3.18.10, 2-(2-chloro-4-(3-morpholinooxetan-3-yl)phenoxy)-1-(1-(2-fluoro-4,5-dimethoxyphenyl)-7-(trifluoromethyl)-3,4-dihydroimidazo[1,2-a:5,4-c′]dipyridin-2(1H)-yl)ethan-1-one] | 25 nM
COc1cc(C2c3c(nc4cc(C(F)(F)F)ccn34)CCN2C(=O)COc2ccc3ccccc3c2)cnc1OC (stereo not drawn) [Example 3.19.1, 1-(1-(5,6-dimethoxypyridin-3-yl)-7-(trifluoromethyl)-3,4-dihydroimidazo[1,2-a:5,4-c′]dipyridin-2(1H)-yl)-2-(naphthalen-2-yloxy)ethan-1-one] | 30 nM
COc1ccc(C2c3c(nc4cc(C(F)(F)F)ccn34)CCN2C(=O)COc2ccc3ccccc3c2)nc1OC (stereo not drawn) [Example 3.20.1, 1-(1-(5,6-dimethoxypyridin-2-yl)-7-(trifluoromethyl)-3,4-dihydroimidazo[1,2-a:5,4-c′]dipyridin-2(1H)-yl)-2-(naphthalen-2-yloxy)ethan-1-one] | 53 nM
O=C(COc1ccc2ccccc2c1)N1CCc2nc3cc(C(F)(F)F)ccn3c2C1c1ncccc1F (stereo not drawn) [Example 3.21.1, 1-(1-(3-fluoropyridin-2-yl)-7-(trifluoromethyl)-3,4-dihydroimidazo[1,2-a:5,4-c′]dipyridin-2(1H)-yl)-2-(naphthalen-2-yloxy)ethan-1-one] | 69 nM
O=C(COc1ccc(CN2CCOCC2)cc1Cl)N1CCc2nc3cc(C(F)(F)F)ccn3c2C1c1ncccc1F (stereo not drawn) [Example 3.21.2, 2-(2-chloro-4-(morpholinomethyl)phenoxy)-1-(1-(3-fluoropyridin-2-yl)-7-(trifluoromethyl)-3,4-dihydroimidazo[1,2-a:5,4-c′]dipyridin-2(1H)-yl)ethan-1-one] | 345 nM
O=C(COc1ccc(N2CCOCC2)cc1Cl)N1CCc2nc3cc(C(F)(F)F)ccn3c2C1c1ncccc1F (stereo not drawn) [Example 3.21.3, 2-(2-chloro-4-morpholinophenoxy)-1-(1-(3-fluoropyridin-2-yl)-7-(trifluoromethyl)-3,4-dihydroimidazo[1,2-a:5,4-c′]dipyridin-2(1H)-yl)ethan-1-one] | 88 nM
Cc1cc(Cl)ccc1OCC(=O)N1CCc2nc3cc(C(F)(F)F)ccn3c2C1c1ncccc1F (stereo not drawn) [Example 3.21.4, 2-(4-chloro-2-methylphenoxy)-1-(1-(3-fluoropyridin-2-yl)-7-(trifluoromethyl)-3,4-dihydroimidazo[1,2-a:5,4-c′]dipyridin-2(1H)-yl)ethan-1-one] | 464 nM
Cc1ccc(C2c3c(nc4cc(C(F)(F)F)ccn34)CCN2C(=O)COc2ccc(CN3CCOCC3)cc2Cl)c(F)c1 (stereo not drawn) [Example 3.22.1, 2-(2-chloro-4-(morpholinomethyl)phenoxy)-1-(1-(2-fluoro-4-methylphenyl)-7-(trifluoromethyl)-3,4-dihydroimidazo[1,2-a:5,4-c′]dipyridin-2(1H)-yl)ethan-1-one] | 7 nM
Cc1ccc(C2c3c(nc4cc(C(F)(F)F)ccn34)CCN2C(=O)COc2cccnc2Cl)c(F)c1 (stereo not drawn) [Example 3.22.2, 2-((2-chloropyridin-3-yl)oxy)-1-(1-(2-fluoro-4-methylphenyl)-7-(trifluoromethyl)-3,4-dihydroimidazo[1,2-a:5,4-c′]dipyridin-2(1H)-yl)ethan-1-one] | 44 nM
Cc1ccc(C2c3c(nc4cc(C(F)(F)F)ccn34)CCN2C(=O)COc2nn(C)c(C(F)(F)F)c2Cl)c(F)c1 (stereo not drawn) [Example 3.22.3, 2-((4-chloro-1-methyl-5-(trifluoromethyl)-1H-pyrazol-3-yl)oxy)-1-(1-(2-fluoro-4-methylphenyl)-7-(trifluoromethyl)-3,4-dihydroimidazo[1,2-a:5,4-c′]dipyridin-2(1H)-yl)ethan-1-one] | 33 nM
CCc1nc(C)ccc1OCC(=O)N1CCc2nc3cc(C(F)(F)F)ccn3c2C1c1ccc(C)cc1F (stereo not drawn) [Example 3.22.4, 2-((2-ethyl-6-methylpyridin-3-yl)oxy)-1-(1-(2-fluoro-4-methylphenyl)-7-(trifluoromethyl)-3,4-dihydroimidazo[1,2-a:5,4-c′]dipyridin-2(1H)-yl)ethan-1-one] | 17 nM
Cc1ccc(C2c3c(nc4cc(C(F)(F)F)ccn34)CCN2C(=O)COc2ccc(NS(C)(=O)=O)nc2Cl)c(F)c1 (stereo not drawn) [Example 3.22.5, N-(6-chloro-5-(2-(1-(2-fluoro-4-methylphenyl)-7-(trifluoromethyl)-3,4-dihydroimidazo[1,2-a:5,4-c′]dipyridin-2(1H)-yl)-2-oxoethoxy)pyridin-2-yl)methanesulfonamide] | 15 nM
Cc1ccc(C2c3c(nc4cc(C(F)(F)F)ccn34)CCN2C(=O)COc2ccc3ccccc3c2)cc1 (stereo not drawn) [Example 3.23.1, 2-(naphthalen-2-yloxy)-1-(1-(p-tolyl)-7-(trifluoromethyl)-3,4-dihydroimidazo[1,2-a:5,4-c′]dipyridin-2(1H)-yl)ethan-1-one] | 67 nM
Cc1ccc(C2c3c(nc4cc(C(F)(F)F)ccn34)CCN2C(=O)COc2ccc(CN3CCOCC3)cc2Cl)cc1 (stereo not drawn) [Example 3.23.2, 2-(2-chloro-4-(morpholinomethyl)phenoxy)-1-(1-(p-tolyl)-7-(trifluoromethyl)-3,4-dihydroimidazo[1,2-a:5,4-c′]dipyridin-2(1H)-yl)ethan-1-one] | 32 nM
COc1ccc(C2c3c(nc4cc(C(F)(F)F)ccn34)CCN2C(=O)COc2ccc3ccccc3c2)cc1 (stereo not drawn) [Example 3.24.1, 1-(1-(4-methoxyphenyl)-7-(trifluoromethyl)-3,4-dihydroimidazo[1,2-a:5,4-c′]dipyridin-2(1H)-yl)-2-(naphthalen-2-yloxy)ethan-1-one] | 44 nM

— patent US20180155344A1, “TRICYCLIC PIPERIDINE COMPOUNDS” (ACTELION PHARMACEUTICALS LTD, priority 2015, published 2018)
